# Laboratory results published in patent US20240002391A1, “4-ALKOXYPYRROLO[2,1-F][1,2,4]TRIAZINES AND PREPARATION AND USES THEREOF” (BioSplice Therapeutics, Inc., priority 2022, published 2024).
# Molecular target: recombinant DYRK1A kinase (Homo sapiens (Human), UniProt Q13627)
# Experiment: DYRK1A kinase assay (Ser/Thr 18 peptide Z-lyte FRET)
# Assay type: biochemical
# Conditions: DYRK1A kinase activity, Z-lyte Ser/Thr 18 peptide, 15 μM ATP; method text calls the value IC50; read-out: EC50 (the source's name)
# Method in brief: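 Steps: combine 0.25 μg/mL kinase, 15 μM ATP and 4 μM peptide with test compound; incubate 1 h at room temperature; add diluted development reagent for another hour; read coumarin and fluorescein emission at Ex 400. The emission ratio yields percent phosphorylation, from which IC50 is derived.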
row,IC50 [nM],Structure (SMILES)
1,1.6,"COc1nc(N[C@@H]2CCN(C)CC2(F)F)nn2ccc(-c3ccc4nnn(CC(F)F)c4c3)c12 [Compound 777, (R)—N-(3,3-Difluoro-1-methylpiperidin-4-yl)-5-(1-(2,2-difluoroethyl)-1H-benzo[d][1,2,3]triazol-6-yl)-4-methoxypyrrolo[2,1-f][1,2,4]triazin-2-amine]"
2,0.5,"COc1nc(N[C@@H]2CCN(C3COC3)CC2(F)F)nn2ccc(-c3ccc4nnn(CC(F)F)c4c3)c12 [Compound 785, (R)—N-(3,3-Difluoro-1-(oxetan-3-yl)piperidin-4-yl)-5-(1-(2,2-difluoroethyl)-1H-benzo[d][1,2,3]triazol-6-yl)-4-methoxypyrrolo[2,1-f][1,2,4]triazin-2-amine]"
3,1.3,"COc1nc(NC2CCC(=O)N(C)C2)nn2ccc(-c3ccc4nnn(CC(F)F)c4c3)c12 (stereo not shown) [Compound 793, 5-((5-(1-(2,2-Difluoroethyl)-1H-benzo[d][1,2,3]triazol-6-yl)-4-methoxypyrrolo[2,1-f][1,2,4]triazin-2-yl)amino)-1-methylpiperidin-2-one]"
4,0.3,"COc1nc(NC23CCC(O)(CC2)C3)nn2ccc(-c3ccc4nnn(CC(F)F)c4c3)c12 [Compound 798, 4-((5-(1-(2,2-Difluoroethyl)-1H-benzo[d][1,2,3]triazol-6-yl)-4-methoxypyrrolo[2,1-f][1,2,4]triazin-2-yl)amino)bicyclo[2.2.1]heptan-1-ol]"
5,1.7,"COc1nc(NC2CCC3(CC2)CN(C(C)=O)C3)nn2ccc(-c3ccc4nnn(CC(F)F)c4c3)c12 [Compound 799, 1-(7-((5-(1-(2,2-Difluoroethyl)-1H-benzo[d][1,2,3]triazol-6-yl)-4-methoxypyrrolo[2,1-f][1,2,4]triazin-2-yl)amino)-2-azaspiro[3.5]nonan-2-yl)ethan-1-one]"
6,3.2,"COc1nc(NC2CCC3(CC2)COC3)nn2ccc(-c3ccc4nnn(CC(F)F)c4c3)c12 [Compound 801, 5-(1-(2,2-Difluoroethyl)-1H-benzo[d][1,2,3]triazol-6-yl)-4-methoxy-N-(2-oxaspiro[3.5]nonan-7-yl)pyrrolo[2,1-f][1,2,4]triazin-2-amine]"
7,10.9,"COc1nc(N[C@H]2CC[C@@](C)(O)CC2)nn2ccc(-c3cc(F)c4nnn(CC(F)F)c4c3)c12 [Compound 810, (1s,4s)-4-((5-(1-(2,2-Difluoroethyl)-4-fluoro-1H-benzo[d][1,2,3]triazol-6-yl)-4-methoxypyrrolo[2,1-f][1,2,4]triazin-2-yl)amino)-1-methylcyclohexan-1-ol]"
8,1.7,"COc1nc(N[C@H]2CC[C@](C)(O)CC2)nn2ccc(-c3cc(F)c4nnn(CC(F)F)c4c3)c12 [Compound 811, (1r,4r)-4-((5-(1-(2,2-Difluoroethyl)-4-fluoro-1H-benzo[d][1,2,3]triazol-6-yl)-4-methoxypyrrolo[2,1-f][1,2,4]triazin-2-yl)amino)-1-methylcyclohexan-1-ol]"

# Second part, the molecule before the results:
row,Structure (SMILES),IC50 [nM]
1,"COc1nc(N[C@H]2CCN(C(C)=O)C[C@H]2F)nn2ccc(-c3ccc4nnn(CC(F)F)c4c3)c12 [Compound 771, 1-((3R,4S)-4-((5-(1-(2,2-Difluoroethyl)-1H-benzo[d][1,2,3]triazol-6-yl)-4-methoxypyrrolo[2,1-f][1,2,4]triazin-2-yl)amino)-3-fluoropiperidin-1-yl)ethan-1-one]",0.1
2,"CCC(=O)N1CC[C@@H](Nc2nc(OC)c3c(-c4ccc5nnn(CC(F)F)c5c4)ccn3n2)[C@@H](F)C1 [Compound 772, 1-((3S,4R)-4-((5-(1-(2,2-Difluoroethyl)-1H-benzo[d][1,2,3]triazol-6-yl)-4-methoxypyrrolo[2,14][1,2,4]triazin-2-yl)amino)-3-fluoropiperidin-1-yl)propan-1-one]",2
3,"CCC(=O)N1CC[C@H](Nc2nc(OC)c3c(-c4ccc5nnn(CC(F)F)c5c4)ccn3n2)[C@H](F)C1 [Compound 773, 1-((3R,4S)-4-((5-(1-(2,2-Difluoroethyl)-1H-benzo[d][1,2,3]triazol-6-yl)-4-methoxypyrrolo[2,1-f][1,2,4]triazin-2-yl)amino)-3-fluoropiperidin-1-yl)propan-1-one]",0.7
4,"COc1nc(N[C@H]2CCN(C(=O)C3(C#N)CC3)C[C@H]2F)nn2ccc(-c3ccc4nnn(CC(F)F)c4c3)c12 [Compound 776, 1-((3R,4S)-4-((5-(1-(2,2-Difluoroethyl)-1H-benzo[d][1,2,3]triazol-6-yl)-4-methoxypyrrolo[2,1-f][1,2,4]triazin-2-yl)amino)-3-fluoropiperidine-1-carbonyl)cyclopropane-1-carbonitrile]",0.5
5,"CCN1CC[C@@H](Nc2nc(OC)c3c(-c4ccc5nnn(CC(F)F)c5c4)ccn3n2)C(F)(F)C1 [Compound 780, (R)-5-(1-(2,2-Difluoroethyl)-1H-benzo[d][1,2,3]triazol-6-yl)-N-(1-ethyl-3,3-difluoropiperidin-4-yl)-4-methoxypyrrolo[2,1-f][1,2,4]triazin-2-amine]",1.9
6,"COc1nc(N[C@@H]2CCN(C(C)=O)CC2(F)F)nn2ccc(-c3ccc4nnn(CC(F)F)c4c3)c12 [Compound 788, (R)-1-(4-((5-(1-(2,2-Difluoroethyl)-1H-benzo[d][1,2,3]triazol-6-yl)-4-methoxypyrrolo[2,1-f][1,2,4]triazin-2-yl)amino)-3,3-difluoropiperidin-1-yl)ethan-1-one]",0.7
7,"COc1nc(N[C@@H]2CCN(C(=O)C3(C#N)CC3)CC2(F)F)nn2ccc(-c3ccc4nnn(CC(F)F)c4c3)c12 [Compound 791, (R)-1-(4-((5-(1-(2,2-Difluoroethyl)-1H-benzo[d][1,2,3]triazol-6-yl)-4-methoxypyrrolo[2,1-f][1,2,4]triazin-2-yl)amino)-3,3-difluoropiperidine-1-carbonyl)cyclopropane-1-carbonitrile]",2.2
8,"COc1nc(N[C@H]2C[C@@](C)(NC(C)=O)C2)nn2ccc(-c3cc(F)c4nnn(CC(F)F)c4c3)c12 [Compound 805, N-((1s,3s)-3-((5-(1-(2,2-Difluoroethyl)-4-fluoro-1H-benzo[d][1,2,3]triazol-6-yl)-4-methoxypyrrolo[2,1-f][1,2,4]triazin-2-yl)amino)-1-methylcyclobutyl)acetamide]",1.6
9,"COc1nc(N[C@H]2C[C@](C)(NC(C)=O)C2)nn2ccc(-c3cc(F)c4nnn(CC(F)F)c4c3)c12 [Compound 806, N-((1r,3r)-3-((5-(1-(2,2-Difluoroethyl)-4-fluoro-1H-benzo[d][1,2,3]triazol-6-yl)-4-methoxypyrrolo[2,1-f][1,2,4]triazin-2-yl)amino)-1-methylcyclobutyl)acetamide]",1.4
10,"COc1nc(N[C@@H]2CN(C(C)=O)C[C@@H]2F)nn2ccc(-c3cc(F)c4nnn(CC(F)F)c4c3)c12 [Compound 812, 1-((3R,4S)-3-((5-(1-(2,2-Difluoroethyl)-4-fluoro-1H-benzo[d][1,2,3]triazol-6-yl)-4-methoxypyrrolo[2,1-f][1,2,4]triazin-2-yl)amino)-4-fluoropyrrolidin-1-yl)ethan-1-one]",2.8
11,"COc1nc(N[C@H]2CCN(C(C)=O)C[C@H]2F)nn2ccc(-c3cc(F)c4nnn(CC(F)F)c4c3)c12 [Compound 816, 1-((3R,4S)-4-((5-(1-(2,2-Difluoroethyl)-4-fluoro-1H-benzo[d][1,2,3]triazol-6-yl)-4-methoxypyrrolo[2,1-f][1,2,4]triazin-2-yl)amino)-3-fluoropiperidin-1-yl)ethan-1-one]",2.8
12,"COc1nc(N[C@H]2CCN(C3COC3)C[C@H]2F)nn2ccc(-c3cc(F)c4nnn(CC(F)F)c4c3)c12 [Compound 818, 5-(1-(2,2-Difluoroethyl)-4-fluoro-1H-benzo[d][1,2,3]triazol-6-yl)-N-((3R,4S)-3-fluoro-1-(oxetan-3-yl)piperidin-4-yl)-4-methoxypyrrolo[2,1-f][1,2,4]triazin-2-amine]",0.8
13,"COc1nc(N[C@@H]2CCN(C(C)=O)CC2(F)F)nn2ccc(-c3cc(F)c4nnn(CC(F)F)c4c3)c12 [Compound 821, (R)-1-(4-((5-(1-(2,2-Difluoroethyl)-4-fluoro-1H-benzo[d][1,2,3]triazol-6-yl)-4-methoxypyrrolo[2,1-f][1,2,4]triazin-2-yl)amino)-3,3-difluoropiperidin-1-yl)ethan-1-one]",1.9
14,"COc1nc(N[C@@H]2CCN(C3COC3)CC2(F)F)nn2ccc(-c3cc(F)c4nnn(CC(F)F)c4c3)c12 [Compound 822, (R)—N-(3,3-Difluoro-1-(oxetan-3-yl)piperidin-4-yl)-5-(1-(2,2-difluoroethyl)-4-fluoro-1H-benzo[d][1,2,3]triazol-6-yl)-4-methoxypyrrolo[2,1-f][1,2,4]triazin-2-amine]",1.8
15,"COc1nc(N[C@H]2CCN(C(C)=O)C[C@H]2F)nn2cc(F)c(-c3ccc4nnn(CC(F)F)c4c3)c12 [Compound 856, 1-((3R,4S)-4-((5-(1-(2,2-Difluoroethyl)-1H-benzo[d][1,2,3]triazol-6-yl)-6-fluoro-4-methoxypyrrolo[2,1-f][1,2,4]triazin-2-yl)amino)-3-fluoropiperidin-1-yl)ethan-1-one]",1.9
16,"COc1nc(N[C@H]2C[C@@H](OCCO)C2)nn2ccc(-c3ccc4nnn(CC(F)(F)F)c4c3)c12 [Compound 904, 2-(cis-3-((4-Methoxy-5-(1-(2,2,2-trifluoroethyl)-1H-benzo[d][1,2,3]triazol-6-yl)pyrrolo[2,1-f][1,2,4]triazin-2-yl)amino)cyclobutoxy)ethan-1-ol]",1.8
17,"COc1nc(N[C@H]2C[C@@](C)(NC(C)=O)C2)nn2ccc(-c3ccc4nnn(CC(F)(F)F)c4c3)c12 [Compound 905, N-((1s,3s)-3-((4-Methoxy-5-(1-(2,2,2-trifluoroethyl)-1H-benzo[d][1,2,3]triazol-6-yl)pyrrolo[2,1-f][1,2,4]triazin-2-yl)amino)-1-methylcyclobutyl)acetamide]",0.4
